{"source": "PubChem BioAssay (NCI)", "experiment_in_all_cases": "DTP human tumour cell line panel, 48 h", "key": {"T-47D breast": {"test_system": "T-47D breast"}, "ACHN renal": {"test_system": "ACHN renal"}, "MALME-3M melanoma": {"test_system": "MALME-3M melanoma"}, "A549 NSCLC": {"test_system": "A549 NSCLC"}, "PC-3 prostate": {"test_system": "PC-3 prostate"}, "SW-620 colon": {"test_system": "SW-620 colon"}, "SK-MEL-2 melanoma": {"test_system": "SK-MEL-2 melanoma"}, "UO-31 renal": {"test_system": "UO-31 renal"}, "MOLT-4 leukemia": {"test_system": "MOLT-4 leukemia"}, "IGROV1 ovarian": {"test_system": "IGROV1 ovarian"}, "HCT-15 colon": {"test_system": "HCT-15 colon"}, "HT29 colon": {"test_system": "HT29 colon"}, "SK-MEL-28 melanoma": {"test_system": "SK-MEL-28 melanoma"}, "UACC-257 melanoma": {"test_system": "UACC-257 melanoma"}, "A498 renal": {"test_system": "A498 renal"}, "DU-145 prostate": {"test_system": "DU-145 prostate"}, "SF-539 CNS": {"test_system": "SF-539 CNS"}, "SNB-75 CNS": {"test_system": "SNB-75 CNS"}, "SNB-19 CNS": {"test_system": "SNB-19 CNS"}, "MDA-MB-231 breast": {"test_system": "MDA-MB-231 breast"}, "OVCAR-5 ovarian": {"test_system": "OVCAR-5 ovarian"}, "UACC-62 melanoma": {"test_system": "UACC-62 melanoma"}, "M14 melanoma": {"test_system": "M14 melanoma"}, "RPMI-8226 leukemia": {"test_system": "RPMI-8226 leukemia"}, "MDA-MB-435": {"test_system": "MDA-MB-435"}, "HCT-116 colon": {"test_system": "HCT-116 colon"}, "EKVX NSCLC": {"test_system": "EKVX NSCLC"}, "HOP-62 NSCLC": {"test_system": "HOP-62 NSCLC"}}, "note": "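Protocol summary: plate cells (96-well), add compound at 5 concentrations, incubate 48 h, interpolate endpoints linearly. The concentration for 50% growth inhibition is given as GI50. TGI is the concentration that stops growth completely.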", "data": [{"compound": "OCCN(CCO)c1ncnc2c1ncn2Cc1ccc(CCl)cc1", "values": [{"measurement": "GI50", "setting": "T-47D breast", "value": 19.4, "unit": "µM"}, {"measurement": "TGI", "setting": "T-47D breast", "value": 36.5, "unit": "µM"}, {"measurement": "GI50", "setting": "ACHN renal", "value": 14.9, "unit": "µM"}, {"measurement": "TGI", "setting": "ACHN renal", "value": 28.5, "unit": "µM"}, {"measurement": "GI50", "setting": "MALME-3M melanoma", "value": 12.8, "unit": "µM"}, {"measurement": "TGI", "setting": "MALME-3M melanoma", "value": 27.3, "unit": "µM"}, {"measurement": "GI50", "setting": "A549 NSCLC", "value": 18.3, "unit": "µM"}, {"measurement": "TGI", "setting": "A549 NSCLC", "value": 53.7, "unit": "µM"}, {"measurement": "GI50", "setting": "PC-3 prostate", "value": 14, "unit": "µM"}, {"measurement": "TGI", "setting": "PC-3 prostate", "value": 33.7, "unit": "µM"}, {"measurement": "GI50", "setting": "SW-620 colon", "value": 10.8, "unit": "µM"}, {"measurement": "TGI", "setting": "SW-620 colon", "value": 27.3, "unit": "µM"}, {"measurement": "GI50", "setting": "SK-MEL-2 melanoma", "value": 16.5, "unit": "µM"}, {"measurement": "TGI", "setting": "SK-MEL-2 melanoma", "value": 41.1, "unit": "µM"}, {"measurement": "GI50", "setting": "UO-31 renal", "value": 14.9, "unit": "µM"}, {"measurement": "TGI", "setting": "UO-31 renal", "value": 31, "unit": "µM"}, {"measurement": "GI50", "setting": "MOLT-4 leukemia", "value": 8.54, "unit": "µM"}, {"measurement": "TGI", "setting": "MOLT-4 leukemia", "value": 52.4, "unit": "µM"}, {"measurement": "GI50", "setting": "IGROV1 ovarian", "value": 19.7, "unit": "µM"}, {"measurement": "TGI", "setting": "IGROV1 ovarian", "value": 40.3, "unit": "µM"}, {"measurement": "GI50", "setting": "HCT-15 colon", "value": 18.4, "unit": "µM"}, {"measurement": "TGI", "setting": "HCT-15 colon", "value": 39.9, "unit": "µM"}, {"measurement": "GI50", "setting": "HT29 colon", "value": 32.5, "unit": "µM"}, {"measurement": "TGI", "setting": "HT29 colon", "value": "> 100", "unit": "µM"}, {"measurement": "GI50", "setting": "SK-MEL-28 melanoma", "value": 23.8, "unit": "µM"}, {"measurement": "TGI", "setting": "SK-MEL-28 melanoma", "value": 63.8, "unit": "µM"}, {"measurement": "GI50", "setting": "UACC-257 melanoma", "value": 13.8, "unit": "µM"}, {"measurement": "TGI", "setting": "UACC-257 melanoma", "value": 28.9, "unit": "µM"}, {"measurement": "GI50", "setting": "A498 renal", "value": 14.2, "unit": "µM"}, {"measurement": "TGI", "setting": "A498 renal", "value": 28.1, "unit": "µM"}, {"measurement": "GI50", "setting": "DU-145 prostate", "value": 4.42, "unit": "µM"}, {"measurement": "TGI", "setting": "DU-145 prostate", "value": 16.1, "unit": "µM"}, {"measurement": "GI50", "setting": "SF-539 CNS", "value": 10.3, "unit": "µM"}, {"measurement": "TGI", "setting": "SF-539 CNS", "value": 24.2, "unit": "µM"}, {"measurement": "GI50", "setting": "SNB-75 CNS", "value": 20.3, "unit": "µM"}, {"measurement": "TGI", "setting": "SNB-75 CNS", "value": 40.9, "unit": "µM"}, {"measurement": "GI50", "setting": "SNB-19 CNS", "value": 19.9, "unit": "µM"}, {"measurement": "TGI", "setting": "SNB-19 CNS", "value": 41.2, "unit": "µM"}, {"measurement": "GI50", "setting": "MDA-MB-231 breast", "value": 18, "unit": "µM"}, {"measurement": "TGI", "setting": "MDA-MB-231 breast", "value": 35.5, "unit": "µM"}, {"measurement": "GI50", "setting": "OVCAR-5 ovarian", "value": 14.1, "unit": "µM"}, {"measurement": "TGI", "setting": "OVCAR-5 ovarian", "value": 27.8, "unit": "µM"}, {"measurement": "GI50", "setting": "UACC-62 melanoma", "value": 18, "unit": "µM"}, {"measurement": "TGI", "setting": "UACC-62 melanoma", "value": 33.5, "unit": "µM"}, {"measurement": "GI50", "setting": "M14 melanoma", "value": 13.8, "unit": "µM"}, {"measurement": "TGI", "setting": "M14 melanoma", "value": 28.4, "unit": "µM"}, {"measurement": "GI50", "setting": "RPMI-8226 leukemia", "value": 17.2, "unit": "µM"}, {"measurement": "TGI", "setting": "RPMI-8226 leukemia", "value": "> 100", "unit": "µM"}, {"measurement": "GI50", "setting": "MDA-MB-435", "value": 14.5, "unit": "µM"}, {"measurement": "TGI", "setting": "MDA-MB-435", "value": 29.3, "unit": "µM"}, {"measurement": "GI50", "setting": "HCT-116 colon", "value": 14, "unit": "µM"}, {"measurement": "TGI", "setting": "HCT-116 colon", "value": 33.8, "unit": "µM"}, {"measurement": "GI50", "setting": "EKVX NSCLC", "value": 16.6, "unit": "µM"}, {"measurement": "TGI", "setting": "EKVX NSCLC", "value": 31.8, "unit": "µM"}, {"measurement": "GI50", "setting": "HOP-62 NSCLC", "value": 23.8, "unit": "µM"}, {"measurement": "TGI", "setting": "HOP-62 NSCLC", "value": 41.1, "unit": "µM"}]}]}
